Converted amounts (≈) assume the structure as drawn. Where two headings read alike, the source gives them in different places.
How the values were obtained:
Motilin Receptor = molecular target: T1, Motilin Receptor (Oryctolagus cuniculus, UniProt G1T803); test: Tissue based assay for motilin agonist potency (rabbit duodenum contractility); format: cell-based
T1 construct: strips of longitudinal smooth muscle were sliced from the segments; from tissue; host or cells: rabbit duodenum longitudinal smooth muscle strips
Protocol: The motilin agonist potencies of compounds of this invention were evaluated using a tissue based assay, using rabbit duodenum tissue-based contractility assay, generally following the procedure of Depoortere et al., J. Gastrointestinal Motility, 1, 150-159 (1989), the disclosure of which is incorporated herein by reference. Briefly, this method measures the ability of a compound to induce contractions in rabbit duodenal tissue, a motilin receptor-bearing tissue contractilely responsive to motilin.
Strips of rabbit duodenum were tested and qualified for use in the assay by as follows. Segments of rabbit duodenum, 20-30 cm distal to the pylorus were split longitudinally. The mucosa was removed and 2×2×15 mm strips of longitudinal smooth muscle were sliced from the segments. The strips were bathed in oxygenated Krebs solution at 37° C., with 1.5 g of tension, and contractions measured auxotonically.
The carbachol was then washed away by changing the organ bath buffer twice. The strips were washed again 20±5 minutes following the carbachol contraction. Following this last wash a dose response study was initiated within 10±5 min. Each compound tested was dissolved in dimethylsulfoxide (DMSO) to a final concentration of 10 mM. A series of seven 10× serial dilutions in water was prepared, so that the concentration of the seventh serial dilution was 1.0×10^−6 mM. The first through fifth serial dilutions of the compound were applied, starting with 200 μL of the most dilute solution. After each application, there was a wait of 2±0.5 min, until the response was stable, before the application of the next dose (the next higher concentration serial dilution). The dose was increased in 10-fold increments until a small response was observed. Subsequent doses were the increased in 2- to 5-fold increments, until the maximum response was obtained. At 2±0.5 min after the last drug addition, the strips were dosed with 1 μM carbachol.
The EC50 (concentration producing a half-maximal effect) was calculated as follows. The basal tension was subtracted from the compound-induced tension for each reading. The data points were normalized against the response obtained from 1 μM carbachol at the end of the experiment. The concentration of compound was plotted against the response and fitted to the following equation: R=(Rmax·C)/(EC50+C) where R is the contraction response, Rmax is the maximal contraction response, and C is the concentration of compound. Both R and Rmax are expressed as a fraction of the 1 μM carbachol contraction and range from 0 to 1.

[1] = tested on: Streptococcus pneumoniae ATCC 6301; test: Evaluation of antibacterial activity (MIC, serial dilutions on 96-well microtiter plates); format: cell-based; details: ATCC6301, read-out: Antibacterial Activity (MIC, μg/mL)
[2] = rabbit duodenum strips, contraction normalized to 1 μM carbachol, read-out: Motilin Receptor Agonist Activity (EC50)

T1 sequence (G1T803 1-400): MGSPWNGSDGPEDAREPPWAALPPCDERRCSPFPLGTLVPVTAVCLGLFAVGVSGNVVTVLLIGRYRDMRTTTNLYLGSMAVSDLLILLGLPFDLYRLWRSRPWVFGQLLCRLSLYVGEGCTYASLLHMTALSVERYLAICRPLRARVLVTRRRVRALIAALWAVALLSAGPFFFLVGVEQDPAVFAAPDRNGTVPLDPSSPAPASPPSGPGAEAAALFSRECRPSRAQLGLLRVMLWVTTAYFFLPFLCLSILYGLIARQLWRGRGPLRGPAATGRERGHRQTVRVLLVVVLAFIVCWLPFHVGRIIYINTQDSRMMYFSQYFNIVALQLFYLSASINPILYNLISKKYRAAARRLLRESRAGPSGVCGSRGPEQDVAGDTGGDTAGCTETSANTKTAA

Structure (SMILES)	MIC [1]	EC50 (Motilin Receptor; [2])	EC50 (Motilin Receptor)
CC[C@H]1OC(=O)[C@H](C)[C@@H](O[C@H]2C[C@@](C)(OC)[C@@H](O)[C@H](C)O2)[C@H](C)[C@@H](O[C@@H]2O[C@H](C)C[C@H](N(C)C)[C@H]2O)[C@](C)(O)C[C@@H](C)C(=O)[C@H](C)[C@@H](O)[C@]1(C)O [Erythromycin A, reference compound]	0.0025 µg/mL (≈ 0.00341 µM)		1200 nM
CC[C@H]1OC(=O)[C@H](C)[C@@H](O[C@H]2C[C@@](C)(OC)[C@@H](O)[C@H](C)O2)[C@H](C)[C@@H](O[C@@H]2O[C@H](C)C[C@H](N(C)C(C)C)[C@H]2O)[C@](C)(O)C[C@@H](C)[C@H](OCCOC)[C@H](C)[C@@H](O)[C@]1(C)O [Compound A-5]	64 µg/mL (≈ 77.9 µM)	320 nM	
CC[C@H]1OC(=O)[C@H](C)[C@@H](O[C@H]2C[C@@](C)(OC)[C@@H](O)[C@H](C)O2)[C@H](C)[C@@H](O[C@@H]2O[C@H](C)C[C@H](N(C)C(C)C)[C@H]2O)[C@](C)(O)C[C@@H](C)[C@H](OS(=O)(=O)N(C)C)[C@H](C)[C@@H](O)[C@]1(C)O [Compound A-19]	128 µg/mL (≈ 147 µM)	91 nM	
CCOC(=O)CO[C@@H]1[C@H](C)[C@@H](O)[C@](C)(O)[C@@H](CC)OC(=O)[C@H](C)[C@@H](O[C@H]2C[C@@](C)(OC)[C@@H](O)[C@H](C)O2)[C@H](C)[C@@H](O[C@@H]2O[C@H](C)C[C@H](N(C)C3CCC3)[C@H]2O)[C@](C)(O)C[C@H]1C [Compound A-10]	> 128 µg/mL	680 nM	
CC[C@H]1OC(=O)[C@H](C)[C@@H](O[C@H]2C[C@@](C)(OC)[C@@H](O)[C@H](C)O2)[C@H](C)[C@@H](O[C@@H]2O[C@H](C)C[C@H](N(C)C(C)C)[C@H]2O)[C@](C)(O)C[C@@H](C)[C@H](NS(C)(=O)=O)[C@H](C)[C@@H](O)[C@]1(C)O [Compound A-35]	64 µg/mL (≈ 76.1 µM)	190 nM	
CC[C@H]1OC(=O)[C@H](C)[C@@H](O[C@H]2C[C@@](C)(OC)[C@@H](O)[C@H](C)O2)[C@H](C)[C@@H](O[C@@H]2O[C@H](C)C[C@H](N(C)C(C)C)[C@H]2O)[C@](C)(O)C[C@@H](C)[C@H](OCc2ccncc2)[C@H](C)[C@@H](O)[C@]1(C)O [Compound A-28]	128 µg/mL (≈ 150 µM)	> 420 nM	
CC[C@H]1OC(=O)[C@H](C)[C@@H](O[C@H]2C[C@@](C)(OC)[C@@H](O)[C@H](C)O2)[C@H](C)[C@@H](O[C@@H]2O[C@H](C)C[C@H](N(C)C(C)C)[C@H]2O)[C@](C)(O)C[C@@H](C)[C@H](OCCNS(C)(=O)=O)[C@H](C)[C@@H](O)[C@]1(C)O [Compound A-32]	> 128 µg/mL	240 nM	
CC[C@H]1OC(=O)[C@H](C)[C@@H](O[C@H]2C[C@@](C)(OC)[C@@H](O)[C@H](C)O2)[C@H](C)[C@@H](O[C@@H]2O[C@H](C)C[C@H](N(C)C[C@H](C)O)[C@H]2O)[C@](C)(O)C[C@@H](C)[C@H](OCC(=O)N(C)C)[C@H](C)[C@@H](O)[C@]1(C)O [Compound A-16]	> 128 µg/mL	2900 nM	
CC[C@H]1OC(=O)[C@H](C)[C@@H](O[C@H]2C[C@@](C)(OC)[C@@H](O)[C@H](C)O2)[C@H](C)[C@@H](O[C@@H]2O[C@H](C)C[C@H](N(C)C3CCC3)[C@H]2O)[C@](C)(O)C[C@@H](C)[C@H](NS(C)(=O)=O)[C@H](C)[C@@H](O)[C@]1(C)O [Compound A-39]	> 128 µg/mL	280 nM	
CCOC(=O)CO[C@@H]1[C@H](C)[C@@H](O)[C@](C)(O)[C@@H](CC)OC(=O)[C@H](C)[C@@H](O[C@H]2C[C@@](C)(OC)[C@@H](O)[C@H](C)O2)[C@H](C)[C@@H](O[C@@H]2O[C@H](C)C[C@H](N(C)C(C)C)[C@H]2O)[C@](C)(O)C[C@H]1C [Compound A-8]	128 µg/mL (≈ 151 µM)	88 nM	
CC[C@H]1OC(=O)[C@H](C)[C@@H](O[C@H]2C[C@@](C)(OC)[C@@H](O)[C@H](C)O2)[C@H](C)[C@@H](O[C@@H]2O[C@H](C)C[C@H](N(C)C(C)C)[C@H]2O)[C@](C)(O)C[C@@H](C)[C@H](NS(=O)(=O)CC)[C@H](C)[C@@H](O)[C@]1(C)O [Compound A-40]	128 µg/mL (≈ 150 µM)	350 nM	
CC[C@H]1OC(=O)[C@H](C)[C@@H](O[C@H]2C[C@@](C)(OC)[C@@H](O)[C@H](C)O2)[C@H](C)[C@@H](O[C@@H]2O[C@H](C)C[C@H](N(C)C(C)C)[C@H]2O)[C@](C)(O)C[C@@H](C)[C@H](OC)[C@H](C)[C@@H](O)[C@]1(C)O [Compound A-1]		66 nM	

Continued, in another order:

MIC [1]	EC50 (Motilin Receptor; [2])	Structure (SMILES)	EC50 (Motilin Receptor)
128 µg/mL (≈ 148 µM)	130 nM	CC[C@H]1OC(=O)[C@H](C)[C@@H](O[C@H]2C[C@@](C)(OC)[C@@H](O)[C@H](C)O2)[C@H](C)[C@@H](O[C@@H]2O[C@H](C)C[C@H](N(C)C(C)C)[C@H]2O)[C@](C)(O)C[C@@H](C)[C@H](OCCNC(=O)OC)[C@H](C)[C@@H](O)[C@]1(C)O [Compound A-65]	
128 µg/mL (≈ 156 µM)	150 nM	CC[C@H]1OC(=O)[C@H](C)[C@@H](O[C@H]2C[C@@](C)(OC)[C@@H](O)[C@H](C)O2)[C@H](C)[C@@H](O[C@@H]2O[C@H](C)C[C@H](N(C)C(C)C)[C@H]2O)[C@](C)(O)C[C@@H](C)[C@H](OCC(=O)O)[C@H](C)[C@@H](O)[C@]1(C)O [Compound A-56]	
> 128 µg/mL	90 nM	CC[C@H]1OC(=O)[C@H](C)[C@@H](O[C@H]2C[C@@](C)(OC)[C@@H](O)[C@H](C)O2)[C@H](C)[C@@H](O[C@@H]2O[C@H](C)C[C@H](N(C)C(C)C)[C@H]2O)[C@](C)(O)C[C@@H](C)[C@H](OCC(=O)NC)[C@H](C)[C@@H](O)[C@H]1C [Compound A-71]	
64 µg/mL (≈ 68.5 µM)	140 nM	CC[C@H]1OC(=O)[C@H](C)[C@@H](O[C@H]2C[C@@](C)(OC)[C@@H](O)[C@H](C)O2)[C@H](C)[C@@H](O[C@@H]2O[C@H](C)C[C@H](N(C)C(C)C)[C@H]2O)[C@](C)(O)C[C@@H](C)[C@H](OCC(=O)NCCN2CCOCC2)[C@H](C)[C@@H](O)[C@]1(C)O [Compound A-48]	
64 µg/mL (≈ 71.5 µM)	330 nM	CC[C@H]1OC(=O)[C@H](C)[C@@H](O[C@H]2C[C@@](C)(OC)[C@@H](O)[C@H](C)O2)[C@H](C)[C@@H](O[C@@H]2O[C@H](C)C[C@H](N(C)C(C)C)[C@H]2O)[C@](C)(O)C[C@@H](C)[C@H](NS(=O)(=O)C(F)(F)F)[C@H](C)[C@@H](O)[C@]1(C)O [Compound A-43]	
128 µg/mL (≈ 148 µM)	170 nM	CC[C@H]1OC(=O)[C@H](C)[C@@H](O[C@H]2C[C@@](C)(OC)[C@@H](O)[C@H](C)O2)[C@H](C)[C@@H](O[C@@H]2O[C@H](C)C[C@H](N(C)C(C)C)[C@H]2O)[C@](C)(O)C[C@@H](C)[C@H](NS(=O)(=O)C2CC2)[C@H](C)[C@@H](O)[C@]1(C)O [Compound A-41]	
128 µg/mL (≈ 146 µM)	28 nM	CC[C@H]1OC(=O)[C@H](C)[C@@H](O[C@H]2C[C@@](C)(OC)[C@@H](O)[C@H](C)O2)[C@H](C)[C@@H](O[C@@H]2O[C@H](C)C[C@H](N(C)C(C)C)[C@H]2O)[C@](C)(O)C[C@@H](C)[C@H](OCC(=O)NC2CCC2)[C@H](C)[C@@H](O)[C@]1(C)O [Compound A-45]	
	400 nM	CC[C@H]1OC(=O)[C@H](C)[C@@H](O[C@H]2C[C@@](C)(OC)[C@@H](O)[C@H](C)O2)[C@H](C)[C@@H](O[C@@H]2O[C@H](C)C[C@H](N(C)C(C)C)[C@H]2O)[C@](C)(O)C[C@@H](C)[C@H](OC(=O)NC)[C@H](C)[C@@H](O)[C@]1(C)O [Compound A-79]	
	92 nM	CC[C@H]1OC(=O)[C@H](C)[C@@H](O[C@H]2C[C@@](C)(OC)[C@@H](O)[C@H](C)O2)[C@H](C)[C@@H](O[C@@H]2O[C@H](C)C[C@H](N(C)C(C)C)[C@H]2O)[C@](C)(O)C[C@@H](C)[C@H](OCC(=O)NOC)[C@H](C)[C@@H](O)[C@]1(C)O [Compound A-69]	
	400 nM	CC[C@H]1OC(=O)[C@H](C)[C@@H](O[C@H]2C[C@@](C)(OC)[C@@H](O)[C@H](C)O2)[C@H](C)[C@@H](O[C@@H]2O[C@H](C)C[C@H](N(C)C(C)C)[C@H]2O)[C@](C)(OC)C[C@@H](C)[C@H](OCC(=O)NC)[C@H](C)[C@@H](O)[C@]1(C)O [Compound A-66]	
	220 nM	CC[C@H]1OC(=O)[C@H](C)[C@@H](O[C@H]2C[C@@](C)(OC)[C@@H](O)[C@H](C)O2)[C@H](C)[C@@H](O[C@@H]2O[C@H](C)C[C@H](N(C)C3CCC3)[C@H]2O)[C@](C)(O)C[C@@H](C)[C@H](OC)[C@H](C)[C@@H](O)[C@]1(C)O [Compound A-47]	
	31 nM	CC[C@H]1OC(=O)[C@H](C)[C@@H](O[C@H]2C[C@@](C)(OC)[C@@H](O)[C@H](C)O2)[C@H](C)[C@@H](O[C@@H]2O[C@H](C)C[C@H](N(C)C(C)C)[C@H]2O)[C@](C)(O)C[C@@H](C)[C@H](OCCNC=O)[C@H](C)[C@@H](O)[C@]1(C)O [Compound A-78]	
